Measured values published in patent US6313095A, “Antiherpes tetrapeptide derivatives having a substituted aspartic acid side chain” (Boehringer Ingelheim (Canada), Ltd., priority 1989, dated 2001).
Where a SMILES comes first, the peptide text is derived from it. [ ]: non-standard residue; d: D form. The star is where a group is joined. ξ: configuration not given here. Asp(3,3-(CH2)4) = N[C@H](C(=O)O)C1(C(=O)O)CCCC1; Gly(1-COOH-cBu) = N[C@H](C(=O)O)C1(C(=O)O)CCC1; cPrCO(2,2,3,3-Me4) = CC1(C)C(C(=O)*)C1(C)C; X1 = CC1CCC(C)C(C(=O)*)C1C(=O)OCCc1ccccc1; Benzoyl(2-Ph) = O=C(c1ccccc1-c1ccccc1)*; ξAsp(3,3-Me2) = CC(C)(C(=O)O)C(N)C(=O)O; X3 = O=C(CCc1ccccc1)C1CCCCC1C(=O)*; Pentanoyl(4-Me) = CC(C)CCC(=O)*; X5 = CC(C)C(CCCCc1ccccc1)C(=O)*; Butanoyl(2-Et) = CCC(CC)C(=O)*; O(2S-octyl) = CCCCCC[C@H](C)O*; Tle = CC(C)(C)[C@H](N)C(=O)O; Leu(ol) = CC(C)C[C@H](N)CO; Hiv = CC(C)[C@H](O)C(=O)O; Isovaleryl = CC(C)CC(=O)*; Morpholide = C1CN(*)CCO1; Pyrrolidide = C1CCN(*)C1; X4 = CC1CCCC(C)C1C(=O)*; X6 = CCCCCCCCN(C)*; Bn = c1ccc(C*)cc1; NEt2 = CCN(CC)*

Molecular target: T1, HSV-1 ribonucleotide reductase (Human herpesvirus 1, UniProt P08543)
T1 construct: HSV-1 ribonucleotide reductase (partially purified) was obtained from quiescent BHK-21/C13 cells infected with strain F HSV-1 virus; endogenous in cells; host or cells: quiescent BHK-21/C13 (hamster) cells infected with HSV-1 strain F; partially purified enzyme preparation
Assay: Inhibition of Herpes Simplex Virus (HSV, Type 1) Ribonucleotide Reductase
Assay type: biochemical, herpes simplex virus type 1 (strain F)
Conditions: mean of four assays
Description: Inhibition of Herpes Simplex Virus (HSV, Type 1) Ribonucleotide Reductase
HSV-1 ribonucleotide reductase (partially purified) was obtained from quiescent BHK-21/C13 cells infected with strain F HSV-1 virus at 10 plaque forming units/cell as described by E. A. Cohen et al., J. Gen. Virol., 66, 733 (1985).
b) Assay and Results for Exemplified Peptides
By following the procedure described by P. Gaudreau et al., J. Biol, Chem., 262, 12413 (1987), the assay results listed in the following table were obtained. The assay result for each peptide is expressed as the concentration of the peptide producing 50% of the maximal inhibition (IC50) of enzyme activity. The number of units of the enzyme preparation used in each assay was constant, based on the specific activity of the enzyme preparation. The results are relative to the activity obtained in control experiments without peptide and represent the mean of four assays that varied less than 10% with each other.

[1] = concentration producing 50% of the maximal inhibition of enzyme activity, partially purified enzyme
[2] = separated diastereoisomer, first eluted on HPLC (footnotes 1, 3)
[3] = separated diastereoisomer, second eluted on HPLC (footnotes 1, 3)

T1 sequence (P08543 whole entry): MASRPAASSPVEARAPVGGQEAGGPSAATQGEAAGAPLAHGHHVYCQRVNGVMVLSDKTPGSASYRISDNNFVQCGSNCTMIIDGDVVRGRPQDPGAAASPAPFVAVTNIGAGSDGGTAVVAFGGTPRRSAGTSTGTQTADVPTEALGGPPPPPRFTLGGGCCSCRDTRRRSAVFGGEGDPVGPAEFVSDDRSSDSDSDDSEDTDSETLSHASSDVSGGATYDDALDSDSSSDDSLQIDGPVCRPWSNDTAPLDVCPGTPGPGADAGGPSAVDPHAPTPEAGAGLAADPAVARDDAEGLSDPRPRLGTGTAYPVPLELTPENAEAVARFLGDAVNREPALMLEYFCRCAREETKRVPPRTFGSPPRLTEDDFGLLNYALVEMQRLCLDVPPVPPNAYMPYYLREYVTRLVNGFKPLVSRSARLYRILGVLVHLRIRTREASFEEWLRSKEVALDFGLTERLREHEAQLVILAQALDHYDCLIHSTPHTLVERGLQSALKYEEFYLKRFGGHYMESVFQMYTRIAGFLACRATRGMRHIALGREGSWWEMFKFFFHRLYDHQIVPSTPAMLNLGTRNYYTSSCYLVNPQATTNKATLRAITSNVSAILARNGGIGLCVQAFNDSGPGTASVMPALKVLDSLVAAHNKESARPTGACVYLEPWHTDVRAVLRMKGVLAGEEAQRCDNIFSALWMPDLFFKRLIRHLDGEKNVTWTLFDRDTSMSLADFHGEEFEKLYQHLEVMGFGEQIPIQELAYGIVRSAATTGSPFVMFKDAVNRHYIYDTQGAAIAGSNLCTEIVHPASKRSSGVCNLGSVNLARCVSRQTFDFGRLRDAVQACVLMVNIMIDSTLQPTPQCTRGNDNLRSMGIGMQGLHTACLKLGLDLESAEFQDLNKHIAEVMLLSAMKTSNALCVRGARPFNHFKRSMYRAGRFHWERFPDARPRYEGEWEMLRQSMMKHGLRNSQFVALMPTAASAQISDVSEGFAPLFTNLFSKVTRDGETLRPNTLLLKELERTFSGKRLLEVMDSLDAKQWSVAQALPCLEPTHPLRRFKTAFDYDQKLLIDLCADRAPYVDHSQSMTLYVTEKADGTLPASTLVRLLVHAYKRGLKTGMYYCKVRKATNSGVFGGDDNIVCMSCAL

CC[C@H](C)[C@H](NC(=O)C(CCCCc1ccccc1)C(C)C)C(=O)N[C@@H](CC(=O)N1CCCC1)C(=O)N[C@@H](CC(=O)O)C(=O)N[C@@H](CC(C)C)C(=O)O (stereo partly drawn) [[d,1-Ph(CH2)4 -CH[CH(CH3)2 ]CO]-Ile-Asp(pyrrolidino)-Asp-Leu-OH] (X5-ID(Pyrrolidide)DL-OH)
IC50 [1]: 1300 nM

CCC(CC)C(=O)N[C@H](C(=O)N[C@@H](CC(=O)N1CCCC1)C(=O)NC(C(=O)N[C@@H](CC(C)C)C(=O)O)C(C)(C)C(=O)O)C(C)(C)C (stereo partly drawn) [(C2 H5)2 CHCO-Tbg-Asp(pyrrolidino)-Asp(diMe)-Leu-OH] ({Butanoyl(2-Et)}-[Tle]D(Pyrrolidide)[ξAsp(3,3-Me2)]L-OH)
IC50 (separated diastereoisomer, first value listed (footnote 5, order not stated)): 140 nM
IC50 (separated diastereoisomer, second value listed (footnote 5, order not stated)): 9100 nM

CCC(CC)C(=O)N[C@H](C(=O)N[C@@H](CC(=O)N1CCCC1)C(=O)N[C@@H](CC(=O)O)C(=O)N[C@@H](CC(C)C)C(=O)O)[C@@H](C)OCc1ccccc1 [(C2 H5)2 CHCO-Thr(OBz)-Asp(pyrrolidino)-Asp-Leu-OH] ({Butanoyl(2-Et)}-T(Bn)D(Pyrrolidide)DL-OH)
IC50 [1]: 3400 nM

CC[C@H](C)[C@H](NC(=O)c1ccccc1-c1ccccc1)C(=O)N[C@@H](CC(=O)N1CCOCC1)C(=O)N[C@@H](CC(=O)O)C(=O)N[C@@H](CC(C)C)C(=O)O [2-Biphenylylcarbonyl-Ile-Asp(morpholino)-Asp-Leu-OH] ({Benzoyl(2-Ph)}-ID(Morpholide)DL-OH)
IC50 [1]: 7200 nM

CC[C@H](C)[C@H](NC(=O)C1C(C)CCCC1C)C(=O)N[C@@H](CC(=O)N1CCCC1)C(=O)N[C@@H](CC(=O)O)C(=O)N[C@@H](CC(C)C)C(=O)O (stereo partly drawn) [(2,6-Dimethylcyclohexyl)carbonyl-Ile-Asp(pyrrolidino)-Asp-Leu-OH] (X4-ID(Pyrrolidide)DL-OH)
IC50 [1]: 2100 nM

CCC(CC)C(=O)N[C@H](C(=O)N[C@@H](CC(=O)N1CCCC1)C(=O)N[C@H](C(=O)N[C@H](CO)CC(C)C)C1(C(=O)O)CCCC1)C(C)(C)C [(C2 H3)2 CHCO-Tbg-Asp(pyrrolidino)-Asp(cyPn)-(L-leucinol)] ({Butanoyl(2-Et)}-[Tle]D(Pyrrolidide)[Asp(3,3-(CH2)4)][Leu(ol)])
IC50 [1]: 500 nM

CC[C@H](C)[C@H](NC(=O)C1C(C)(C)C1(C)C)C(=O)N[C@@H](CC(=O)N1CCCC1)C(=O)N[C@@H](CC(=O)O)C(=O)N[C@@H](CC(C)C)C(=O)O [(2,2,3,3-Tetramethylcyclopropyl)carbonyl-Ile-Asp(pyrrolidino)-Asp-Leu-OH] ({cPrCO(2,2,3,3-Me4)}-ID(Pyrrolidide)DL-OH)
IC50 [1]: 1400 nM

CCCCCC[C@H](C)OC(=O)C[C@H](NC(=O)[C@@H](NC(=O)CCC(C)C)[C@@H](C)CC)C(=O)N[C@@H](CC(=O)O)C(=O)N[C@@H](CC(C)C)C(=O)O [(CH3)2 CHCH2 CH2 CO-Ile-Asp(1-methylheptyloxy)-Asp-Leu-OH] ({Pentanoyl(4-Me)}-ID(O(2S-octyl))DL-OH)
IC50 [1]: > 10000 nM

CC[C@H](C)[C@H](NC(=O)C1CCCCC1C(=O)CCc1ccccc1)C(=O)N[C@@H](CC(=O)N(CC)CC)C(=O)N[C@@H](CC(=O)O)C(=O)N[C@@H](CC(C)C)C(=O)O (stereo partly drawn) [[(d,1)-2-(3-Phenyl-1-oxopropyl)cyclohexanecarbonyl]-Ile-Asp(NEt2)-Asp-Leu-OH] (X3-ID(NEt2)DL-OH)
IC50 [2]: 1400 nM
IC50 [3]: 34000 nM

CC[C@H](C)[C@H](NC(=O)CCC(C)C)C(=O)N[C@@H](CC(=O)N1CCCC1)C(=O)N[C@@H](CC(=O)O)C(=O)N[C@@H](CC(C)C)C(=O)O [(CH3)2 CHCH2 CH2 CO-Ile-Asp(pyrrolidino)-Asp-Leu-OH] ({Pentanoyl(4-Me)}-ID(Pyrrolidide)DL-OH)
IC50 [1]: 3000 nM

CC[C@H](C)[C@H](NC(=O)c1ccccc1-c1ccccc1)C(=O)N[C@@H](CC(=O)N1CCCC1)C(=O)N[C@@H](CC(=O)O)C(=O)N[C@@H](CC(C)C)C(=O)O [2-Biphenylylcarbonyl-Ile-Asp(pyrrolidino)-Asp-Leu-OH] ({Benzoyl(2-Ph)}-ID(Pyrrolidide)DL-OH)
IC50 [1]: 3600 nM

CC[C@H](C)[C@H](NC(=O)C1C(C)CCC(C)C1C(=O)OCCc1ccccc1)C(=O)N[C@@H](CC(=O)N1CCCC1)C(=O)N[C@@H](CC(=O)O)C(=O)N[C@@H](CC(C)C)C(=O)O (stereo partly drawn) [[(d,1)1α,2α,3β,6β-3,6-Dimethyl-2-(phenylethoxycarbonyl)cyclohexanecarbonyl]-Ile-Asp(pyrrolidino)-Asp-Leu-OH] (X1-ID(Pyrrolidide)DL-OH)
IC50 [2]: 500 nM
IC50 [3]: 2300 nM

CCC(CC)C(=O)N[C@H](C(=O)N[C@@H](CC(=O)N1CCCC1)C(=O)N[C@@H](CC(=O)O)C(=O)NCCC(C)(C)C)C(C)(C)C [(C2 H5)2 CHCO-Tbg-Asp(pyrrolidino)-Asp-NHCH2 CH2 C(CH)3]
IC50 [1]: 18000 nM

CCCCCC[C@H](C)OC(=O)C[C@H](NC(=O)[C@@H](NC(=O)C(CC)CC)C(C)(C)C)C(=O)N[C@H](C(=O)N[C@@H](CC(C)C)C(=O)O)C1(C(=O)O)CCCC1 [(C2 H5)2 CHCO-Tbg-Asp(1-methylheptyloxy)-Asp(cyPn)-Leu-OH] ({Butanoyl(2-Et)}-[Tle]D(O(2S-octyl))[Asp(3,3-(CH2)4)]L-OH)
IC50 [1]: 370 nM

CCC(CC)C(=O)N[C@@H](Cc1cccs1)C(=O)N[C@@H](CC(=O)N1CCCC1)C(=O)N[C@@H](CC(=O)O)C(=O)NCCC(C)(C)C [(C2 H5)2 CHCO-NHCH(2-thienylmethyl)CO-Asp(pyrrolidino)-Asp-NHCH2 CH2 C(CH3)3]
IC50 [1]: 60000 nM

CCC(CC)C(=O)N[C@H](C(=O)N[C@@H](CC(=O)N1CCCC1)C(=O)N[C@@H](CC(=O)O)C(=O)NCCC(C)(C)C)c1ccccc1 [(C2 H5)2 CHCO-Phg-Asp(pyrrolidino)-Asp-NHCH2 CH2 C(CH3)3]
IC50 [1]: 40000 nM

CCC(CC)C(=O)N[C@H](C(=O)N[C@@H](CC(=O)N1CCCC1)C(=O)N[C@@H](CC(=O)O)C(=O)NCCC(C)(C)C)C1CCCC1 [(C2 H5)2 CHCO-Cpg-Asp(pyrrolidino)-Asp-NHCH2 CH2 C(CH)3]
IC50 [1]: 35000 nM

CCC(CC)C(=O)N[C@H](C(=O)N[C@@H](CC(=O)N1CCCC1)C(=O)N[C@@H](CC(=O)O)C(=O)N[C@H](CO)CC1CCCCC1)C(C)(C)C [(C2 H5)CHCO-Tbg-Asp(pyrrolidino)-Asp-NH--CH(cyclohexylmethyl)CH2 OH]
IC50 [1]: 10500 nM

CC[C@H](C)[C@H](NC(=O)c1ccccc1-c1ccccc1)C(=O)N[C@@H](CC(=O)N1CCCC1)C(=O)N[C@@H](CC(=O)O)C(=O)N[C@@H](CC(C)C)c1nnn[nH]1 [2-Biphenylcarbonyl-Ile-Asp(pyrrolidino)-Asp-NHCH--[CH2 CH(CH3)2-5-1H-tetrazole]
IC50 [1]: 13800 nM

CCC(CC)C(=O)N[C@H](C(=O)N[C@@H](CC(=O)N1CCCC1)C(=O)N[C@@H](CC(=O)O)C(=O)N[C@H](CO)[C@@H](C)CC)C(C)(C)C [(C2 H5)2 CHCO-Tbg-Asp(pyrrolidino)-Asp-(L-isoleucinol)]
IC50 [1]: 11000 nM

CCC(CC)C(=O)N[C@H](C(=O)N[C@@H](CC(=O)N1CCCC1)C(=O)N[C@H](C(=O)N[C@@H](CC(C)C)C(=O)O)C(CC)(CC)C(=O)O)C(C)(C)C [(C2 H5)2 CHCO-Tbg-Asp(pyrrolidino)-Asp(diEt)-Leu-OH]
IC50 [1]: 100 nM

CCCCCC[C@H](C)OC(=O)C[C@H](NC(=O)[C@@H](NC(=O)C(CC)CC)C(C)(C)C)C(=O)N[C@H](C(=O)N[C@@H](CC(C)C)C(=O)O)C1(C(=O)O)CCC1 [(C2 H5)2 CHCO-Tbg-Asp(1-methylheptyloxy)-Asp(cyBu)-Leu-OH] ({Butanoyl(2-Et)}-[Tle]D(O(2S-octyl))[Gly(1-COOH-cBu)]L-OH)
IC50 [1]: 500 nM

CCCCCCCCN(C)C(=O)C[C@H](NC(=O)[C@@H](NC(=O)C(CC)CC)C(C)(C)C)C(=O)N[C@H](C(=O)N[C@@H](CC(C)C)C(=O)O)C1(C(=O)O)CCC1 [(C2 H5)2 CHCO-Tbg-Asp(N-Me-N-octyl)-Asp(cyBu)-Leu-OH] ({Butanoyl(2-Et)}-[Tle]D(X6)[Gly(1-COOH-cBu)]L-OH)
IC50 [1]: 200 nM

CCC(CC)C(=O)N[C@H](C(=O)N[C@@H](CC(=O)N1CCCC1)C(=O)N[C@@H](CC(=O)O)C(=O)NCCC(C)(C)C)[C@@H](C)OC [(C2 H5)2 CHCO-Thr(OMe)-Asp(pyrrolidino)-Asp-NHCH2 CH2 C(CH3)3]
IC50 [1]: 75000 nM

CCC(CC)C(=O)N[C@H](C(=O)N[C@@H](CC(=O)N1CCCC1)C(=O)N[C@@H](CC(=O)O)C(=S)N[C@@H](CC(C)C)C(=O)O)C(C)(C)C [(C2 H5)2 CHCO-Tbg-Asp(pyrrolidino)-Asp.PSI.[CSNH]Leu-OH]
IC50 [1]: 1900 nM

CCCCC(C(=O)O)[C@H](NC(=O)[C@H](CC(=O)N1CCCC1)NC(=O)[C@@H](NC(=O)C(CC)CC)C(C)(C)C)C(=O)N[C@@H](CC(C)C)C(=O)O (stereo partly shown) [(C2 H5)2 CHCO-Tbg-Asp(pyrrolidino)-Asp(Bu)-Leu-OH]
IC50 [1]: 2000 nM

CC[C@H](C)[C@H](NC(=O)CC(C)C)C(=O)N[C@@H](CC(=O)N1CCCC1)C(=O)N[C@@H](CC(=O)O)C(=O)N[C@@H](CC(C)C)C(=O)O [(CH3)2 CHCH2 CO-Ile-Asp(pyrrolidino)-Asp-Leu-OH] (Isovaleryl-ID(Pyrrolidide)DL-OH)
IC50 [1]: 2700 nM

CC(C)C[C@H](NC(=O)[C@H](CC(=O)O)NC(=O)[C@H](CC(=O)N1CCCC1)NC(=O)[C@@H](NC(=O)[C@@H](O)C(C)C)C(C)(C)C)C(=O)O [[(S)-(CH3)2 CHCH(OH)CO]-Tbg-Asp(pyrrolidino)-Asp-Leu-OH] (H-[Hiv][Tle]D(Pyrrolidide)DL-OH)
IC50 [1]: 2800 nM
